Legend:
PRMT5/MEP50 complex = PRMT5/MEP50 complex (Homo sapiens, UniProt O14744); experiment: LC/MS based biochemical histone methyltransferase assay
Method: Top: Schematic representation of multi-allele dual-selection assay with P2A or STOP insertion cassettes and crystal violet staining of cells. […] Profiling of the inhibitory activity (IC50) of adenosine and MTA across a panel of histone methyltransferases (HMTs) in an LC/MS based biochemical assay. MTA and adenosine display single digit μM activity against the PRMT5/MEP50 complex (red) but have no activity (IC50>100 μM) across all other HMTs tested. […] MIAPaCa2 cells stably expressing inducible shPRMT5-2 were transduced with pRetro empty vector control or with MTAP cDNA and proliferation assessed by confluence measurements using Incucyte. […] FIGS. 3 K and L show in vitro proliferation assay of PK1 MTAP isogenic cell lines generated from a non-targeting control sgRNA FIG. 3 K, PK1 CTRL; or with a sgRNA targeting MTAP 1, PK1 MTAP KO and stably expressing Dox-inducible PRMT5 (shPRMT5-2) with and without treatment with doxycycline (+/−Dox) over time (hours) as assessed by incucyte (n=24 per treatment condition). […] FIGS. 3 M and N show focus formation of PK1 (FIG. 3M), wild type (WT) and (FIG. 3N), MTAP knockout (MTAP KO) cells treated with DMSO or MTA at concentrations as indicated.

PRMT5 = PRMT5 (Homo sapiens, UniProt O14744); settings: methylating the substrate E2-F-1; cited from earlier work
PRMT5, sequence (O14744 whole entry): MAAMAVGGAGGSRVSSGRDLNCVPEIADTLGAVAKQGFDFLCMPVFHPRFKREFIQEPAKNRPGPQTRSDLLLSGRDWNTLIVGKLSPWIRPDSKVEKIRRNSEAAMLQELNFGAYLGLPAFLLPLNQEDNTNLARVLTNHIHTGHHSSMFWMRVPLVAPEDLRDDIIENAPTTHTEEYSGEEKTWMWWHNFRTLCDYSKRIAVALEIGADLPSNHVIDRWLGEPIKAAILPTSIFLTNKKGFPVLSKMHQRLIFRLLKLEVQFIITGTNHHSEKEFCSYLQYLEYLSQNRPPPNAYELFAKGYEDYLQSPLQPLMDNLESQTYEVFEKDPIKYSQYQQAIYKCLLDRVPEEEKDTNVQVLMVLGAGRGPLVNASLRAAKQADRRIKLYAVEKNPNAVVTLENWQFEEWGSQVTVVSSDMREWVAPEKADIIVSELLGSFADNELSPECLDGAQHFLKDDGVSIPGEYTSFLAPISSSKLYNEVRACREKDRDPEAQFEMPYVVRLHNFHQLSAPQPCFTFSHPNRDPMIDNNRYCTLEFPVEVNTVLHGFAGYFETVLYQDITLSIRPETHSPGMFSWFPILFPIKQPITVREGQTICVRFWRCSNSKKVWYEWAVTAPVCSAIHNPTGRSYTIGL
PRMT5, sequence (Q9BQA1 whole entry partner): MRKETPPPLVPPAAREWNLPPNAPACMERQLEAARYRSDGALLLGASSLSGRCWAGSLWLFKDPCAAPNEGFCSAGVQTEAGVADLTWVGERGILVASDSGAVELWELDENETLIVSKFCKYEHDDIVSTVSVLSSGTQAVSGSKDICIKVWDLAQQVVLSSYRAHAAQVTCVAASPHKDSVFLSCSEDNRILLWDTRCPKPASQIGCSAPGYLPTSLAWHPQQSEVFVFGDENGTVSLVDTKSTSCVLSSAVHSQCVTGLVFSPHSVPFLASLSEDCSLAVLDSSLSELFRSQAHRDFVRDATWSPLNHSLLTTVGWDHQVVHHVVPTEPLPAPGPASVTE

PRMT5/MEP50 complex, sequence (O14744 whole entry): as the sequence (O14744 whole entry) above
PRMT5/MEP50 complex, sequence (Q9BQA1 whole entry partner): as the sequence (Q9BQA1 whole entry partner) above

Compound	inhibitory activity (IC50) (PRMT5/MEP50 complex)	PRMT5 activity (PRMT5)
Nc1ncnc2c1ncn2[C@@H]1O[C@H](CO)[C@@H](O)[C@H]1O [adenosine]	single digit	–
CSC[C@H]1O[C@@H](n2cnc3c(N)ncnc32)[C@H](O)[C@@H]1O [MTA, methyl-thioadenosine]	single digit	–
Nc1ncnc2c1ncn2[C@@H]1O[C@H](C[C@@H](N)CC[C@H](N)C(=O)O)C(O)C1O (stereo in doubt) [Sinefungin, 5′-Deoxy-5′-(1,4-diamino-4-carboxybutyl)adenosine]	–	inhibits

Source: US20180010132A1, “INHIBITION OF PRMT5 TO TREAT MTAP-DEFICIENCY-RELATED DISEASES” (NOVARTIS AG, priority 2014, published 2018)
